# Experimental data from patent publication US11407711B2, “Benzamide compound and use thereof” (METISA BIOTECHNOLOGY CO., LTD., priority 2018, dated 2022).
# Like-named read-outs stand apart in the source and are kept apart here.
# Columns and labels:
# Type in all cases: in vivo
# [1] = tested on: Plutella xylostella; experiment: Insecticidal activity against Plutella xylostella (Airbrush spray on cabbage leaf discs); conditions: for pest or weed control at 10 µg/mL / pest or weed control at 1 µg/mL / pest or weed control at 0.5 µg/mL: Plutella xylostella, foliar, 72 h; for Fatality rate (%, 3 d after administration) 5 mg/L: Table 72, 5 mg/L; for Fatality rate (%, 3 d after administration) 0.05 mg/L: Table 74, 0.05 mg/L
# Method: (§1) The compound to be tested was dissolved by a mixed solvent of acetone/methanol (1:1), and then diluted by water containing 0.1% (wt) Tween 80 to the required concentration.
# (§2) An Airbrush spray method was adopted for the determination of the activity, with armyworm, Plutella xylostella and Chilo suppressalis as targets.
# Determination method: cabbage blades were punched into 2 cm (diameter) leaf discs by a puncher; with the pressure of Airbrush spray being 10 psi (about 0.7 kg/cm^2), both sides of each leaf disc were sprayed with the amount of 0.5 ml. After dried in the shade, each leaf disc was inoculated with 10 3rd-instar larvaes, 3 repeats for each leaf disc. And then, the treated leaf discs were put into an observation room (25° C., relative humidity: 60-70%) for cultivation; the number of the survivals was surveyed 1 d, 2 d and 3 d after administration, and then the death rate was calculated.
# [2] = tested on: Chilo suppressalis; experiment: Insecticidal activity against Chilo suppressalis (spray on rice seedlings, stems fed to larvae); conditions: for pest or weed control at 1 µg/mL / pest or weed control at 4 µg/mL / pest or weed control at 40 µg/mL: Chilo suppressalis, 72 h, survivals surveyed 3 d after administration, read-out: fatality rate against Chilo suppressalis; for pest or weed control at 1 µg/mL: 1 mg/L; for pest or weed control at 4 µg/mL: 4 mg/L; for pest or weed control at 40 µg/mL: 40 mg/L
# Method: as §1, §2
# Determination method: 1) preparation of rice seedlings: rice was cultivated in small plastic cups (diameter: 4.5 cm and height: 4 cm) at a constant temperature room (temperature: 26-28° C., relative humidity: 60-80% around and illumination: 16 hL:8 hD), after the rice grew to a 4-5 leaf stage, vigorous and uniform-growth rice seedlings were selected and treated with an insecticide, 3 repeats for each treatment. 2) Preparation of pests for test: 3rd-instar larvaes of Chilo suppressalis fed continuously in the room. 3) Inoculation of pests on rice stems by spray. The whole plants of the rice seedlings were sprayed by a spray method uniformly, with the dose of 15 ml for each treatment. The blank control was treated first, and the above operation was repeated in an order of lower to higher test concentration. After sprayed, rice seedlings were placed in the shade to dry the insecticide liquor, and then stalks about 5 cm above the basal part of the stems were cut to be fed to the pests for test. Glass petri dishes (diameter: […]) were prepared, cushioned by filter paper at the bottom thereof, and subjected to water addition for moisturizing; about 20 pieces of rice stems were put in each dish and inoculated with 10 larvaes; then the petri dishes were closed by non-woven fabrics and placed in a constant temperature room for culture. The number of survivals was surveyed 3 d after administration.
# [3] = tested on: armyworm; experiment: Insecticidal activity against armyworm (Airbrush spray on maize blade segments); conditions: 72 h, 3 d after administration, 3rd-instar larvae, read-out: fatality rate against armyworm; for pest or weed control at 0.05 µg/mL: 0.05 mg/L; for pest or weed control at 0.1 µg/mL: 0.1 mg/L; for pest or weed control at 0.5 µg/mL: 0.5 mg/L
# Method: as §1, §2
# Determination method: maize blades were cut into 2 cm (length) segments; with the pressure of Airbrush spray being 10 psi (about 0.7 kg/cm^2), both sides of each blade segment were sprayed with the amount of 0.5 ml. After dried in the shade, each segment was inoculated with 10 3rd-instar larvaes, 3 repeats for each segment. And then, the treated segments were put into an observation room (25° C., relative humidity: 60-70%) for cultivation; the number of the survivals was surveyed 1 d, 2 d and 3 d after administration, and then the death rate was calculated.
# [4] = Table 71, 10 mg/L, 3 d after administration, read-out: Fatality rate (%, 3 d after administration) 10 mg/L
# [5] = Table 73, 0.5 mg/L, 3 d after administration
# [6] = Table 72, 1 mg/L, 3 d after administration
# [7] = Table 73, 1 mg/L, 3 d after administration
# [8] = Table 74, 0.5 mg/L, 3 d after administration
# [9] = Table 73, 0.5 mg/L, 3 d after administration, read-out: Fatality rate (%, 3 d after administration) 0.5 mg/L
# [10] = Table 73, 1 mg/L, 3 d after administration, read-out: Fatality rate (%, 3 d after administration) 1 mg/L
# [11] = Table 75, fast-acting efficacy, dose 0.5 mg/L
# [12] = Table 76, fast-acting efficacy, dose 0.05 mg/L
# [13] = 0.5 mg/L, 3 d after administration, read-out: fatality rate against Plutella xylostella
# [14] = 1 mg/L, 3 d after administration, read-out: fatality rate against Plutella xylostella
compound,measurement,setting,value
"COCN(C(=O)c1ccccc1)c1cccc(C(=O)N(C)c2c(C)cc(C(F)(C(F)(F)F)C(F)(F)F)cc2C)c1 [CK1, reference compound]",pest or weed control at 10 µg/mL,[1]; [4],0%
"COCN(C(=O)c1ccccc1)c1cccc(C(=O)Nc2c(C)cc(C(F)(C(F)(F)F)C(F)(F)F)cc2C)c1 [CK2, reference compound]",pest or weed control at 10 µg/mL,[1]; [4],0%
"Cc1cc(C(F)(C(F)(F)F)C(F)(F)F)cc(C)c1NC(=O)c1cccc(N(C#N)C(=O)c2ccccc2)c1 [CK3, reference compound]",pest or weed control at 10 µg/mL,[1]; [4],0%
"NC(=O)CCN(C(=O)c1ccccc1)c1cccc(C(=O)N(CCC(N)=O)c2c(Br)cc(C(F)(C(F)(F)F)C(F)(F)F)cc2C(F)(F)F)c1F [CK4, reference compound]",pest or weed control at 10 µg/mL,"[1]; read-out: Fatality rate (%, 3 d after administration) 10 mg/L, Table 71, 10 mg/L, 3 d after administration",0%
"NC(=O)CCN(C(=O)c1ccccc1)c1cccc(C(=O)N(CCC(N)=O)c2c(Br)cc(C(F)(C(F)(F)F)C(F)(F)F)cc2C(F)(F)F)c1F [CK5, reference compound]",pest or weed control at 1 µg/mL,"[1]; read-out: Fatality rate (%, 3 d after administration) 1 mg/L, Table 72, 1 mg/L, 3 d after administration",0%
same,"Fatality rate (%, 3 d after administration) 5 mg/L",[1]; 3 d after administration,63.5%
"NC(=O)CCN(C(=O)c1ccccc1)c1cccc(C(=O)N(CCC(N)=O)c2c(Br)cc(C(F)(C(F)(F)F)C(F)(F)F)cc2C(F)(F)F)c1F [CK6, reference compound]",pest or weed control at 1 µg/mL,"[1]; read-out: Fatality rate (%, 3 d after administration) 1 mg/L, Table 73, 1 mg/L, 3 d after administration",68%
same,"Fatality rate (%, 3 d after administration) 0.5 mg/L",[1]; [5],10%
"NC(=O)CCN(C(=O)c1ccccc1)c1cccc(C(=O)N(CCC(N)=O)c2c(Br)cc(C(F)(C(F)(F)F)C(F)(F)F)cc2C(F)(F)F)c1F [CK7, reference compound]",pest or weed control at 0.5 µg/mL,"[1]; read-out: Fatality rate (%, 3 d after administration) 0.5 mg/L, Table 74, 0.5 mg/L, 3 d after administration",70%
same,"Fatality rate (%, 3 d after administration) 0.05 mg/L",[1]; 3 d after administration,0%
"NC(=O)CCN(C(=O)c1ccccc1)c1cccc(C(=O)N(CCC(N)=O)c2c(Br)cc(C(F)(C(F)(F)F)C(F)(F)F)cc2C(F)(F)F)c1F [CK8, reference compound]","Fatality rate (%, 3 d after administration) 1 mg/L",[1]; [6],0%
same,"Fatality rate (%, 3 d after administration) 5 mg/L",[1]; 3 d after administration,65.8%
"NC(=O)CCN(C(=O)c1ccccc1)c1cccc(C(=O)N(CCC(N)=O)c2c(Br)cc(C(F)(C(F)(F)F)C(F)(F)F)cc2C(F)(F)F)c1F [CK9, reference compound]","Fatality rate (%, 3 d after administration) 0.5 mg/L",[1]; [5],0%
same,"Fatality rate (%, 3 d after administration) 1 mg/L",[1]; [7],55%
"NC(=O)CCN(C(=O)c1ccccc1)c1cccc(C(=O)N(CCC(N)=O)c2c(Br)cc(C(F)(C(F)(F)F)C(F)(F)F)cc2C(F)(F)F)c1F [CK10, reference compound]","Fatality rate (%, 3 d after administration) 0.5 mg/L",[1]; [5],0%
same,"Fatality rate (%, 3 d after administration) 1 mg/L",[1]; [7],55%
"NC(=O)CCN(C(=O)c1ccccc1)c1cccc(C(=O)N(CCC(N)=O)c2c(Br)cc(C(F)(C(F)(F)F)C(F)(F)F)cc2C(F)(F)F)c1F [CK11, reference compound]","Fatality rate (%, 3 d after administration) 0.05 mg/L",[1]; 3 d after administration,0%
same,"Fatality rate (%, 3 d after administration) 0.5 mg/L",[1]; [8],75%
"NC(=O)CCN(C(=O)c1ccccc1)c1cccc(C(=O)N(CCC(N)=O)c2c(Br)cc(C(F)(C(F)(F)F)C(F)(F)F)cc2C(F)(F)F)c1F [CK12, reference compound]","Fatality rate (%, 3 d after administration) 1 mg/L",[1]; [6],0%
same,"Fatality rate (%, 3 d after administration) 5 mg/L",[1]; 3 d after administration,60%
"NC(=O)CCN(C(=O)c1ccccc1)c1cccc(C(=O)N(CCC(N)=O)c2c(Br)cc(C(F)(C(F)(F)F)C(F)(F)F)cc2C(F)(F)F)c1F [CK13, reference compound]","Fatality rate (%, 3 d after administration) 0.5 mg/L",[1]; [5],0%
same,"Fatality rate (%, 3 d after administration) 1 mg/L",[1]; [7],75%
"NC(=O)CCN(C(=O)c1ccccc1)c1cccc(C(=O)N(CCC(N)=O)c2c(Br)cc(C(F)(C(F)(F)F)C(F)(F)F)cc2C(F)(F)F)c1F [CK14, reference compound]","Fatality rate (%, 3 d after administration) 0.05 mg/L",[1]; 3 d after administration,0%
same,"Fatality rate (%, 3 d after administration) 0.5 mg/L",[1]; [8],60%
"O=C(Nc1cccc(C(=O)Nc2c(Br)cc(C(F)(C(F)(F)F)C(F)(F)F)cc2Br)c1F)c1ccccc1 [CK15, reference compound]","Fatality rate (%, 3 d after administration) 1.25 mg/L","[2]; Table 77, 1.25 mg/L, 3 d after administration",8.6%
same,"Fatality rate (%, 3 d after administration) 2.5 mg/L","[2]; Table 77, 2.5 mg/L, 3 d after administration",22.2%
same,"Fatality rate (%, 3 d after administration) 5 mg/L","[2]; Table 77, 5 mg/L, 3 d after administration",50.3%
same,pest or weed control at 0.5 µg/mL,[1]; [9],50%
same,pest or weed control at 1 µg/mL,[1]; [10],90%
same,Fatality rate (%) 1 d after administration,[1]; [11],0%
same,Fatality rate (%) 2 d after administration,[1]; [11],30%
same,Fatality rate (%) 3 d after administration,"[1]; Table 75, fast-acting efficacy, dose 0.5 mg/L, 3 d after administration",50%
"CN(C(=O)c1ccccc1)c1cccc(C(=O)Nc2c(Br)cc(C(F)(C(F)(F)F)C(F)(F)F)cc2C(F)(F)F)c1F [CK16, broflanilide, reference compound]","Fatality rate (%, 3 d after administration) 0.625 mg/L","[2]; Table 78, 0.625 mg/L, 3 d after administration",10%
same,"Fatality rate (%, 3 d after administration) 1.25 mg/L","[2]; Table 78, 1.25 mg/L, 3 d after administration",60.3%
same,"Fatality rate (%, 3 d after administration) 2.5 mg/L","[2]; Table 78, 2.5 mg/L, 3 d after administration",85.5%
same,pest or weed control at 0.5 µg/mL,"[1]; Table 74, 0.5 mg/L, 3 d after administration, read-out: Fatality rate (%, 3 d after administration) 0.5 mg/L",100%
same,"Fatality rate (%, 3 d after administration) 0.05 mg/L",[1]; 3 d after administration,80.8%
same,Fatality rate (%) 1 d after administration,[1]; [12],0%
same,Fatality rate (%) 2 d after administration,[1]; [12],52.5%
same,Fatality rate (%) 3 d after administration,"[1]; Table 76, fast-acting efficacy, dose 0.05 mg/L, 3 d after administration",80.8%
N#CCN(C(=O)c1ccc(F)cc1)c1cccc(C(=O)Nc2c(Br)cc(C(F)(C(F)(F)F)C(F)(F)F)cc2Br)c1F [Compound 2.7],pest or weed control at 0.05 µg/mL,[3],≥ 90%
same,pest or weed control at 0.1 µg/mL,[3],≥ 90%
same,pest or weed control at 0.5 µg/mL,[3],≥ 90%
same,pest or weed control at 1 µg/mL,[2],≥ 90%
same,pest or weed control at 4 µg/mL,[2],≥ 90%
same,pest or weed control at 40 µg/mL,[2],≥ 90%
same,pest or weed control at 0.5 µg/mL,[1]; [13],≥ 90%
same,pest or weed control at 1 µg/mL,[1]; [14],≥ 90%
same,pest or weed control at 10 µg/mL,[1]; [4],100%
same,pest or weed control at 0.5 µg/mL,[1]; [9],100%
same,pest or weed control at 1 µg/mL,[1]; [10],100%
N#CCN(C(=O)c1ccc(C#N)cc1)c1cccc(C(=O)Nc2c(Br)cc(C(F)(C(F)(F)F)C(F)(F)F)cc2Br)c1F [Compound 2.17],pest or weed control at 0.05 µg/mL,[3],≥ 90%
same,pest or weed control at 0.1 µg/mL,[3],≥ 90%
same,pest or weed control at 0.5 µg/mL,[3],≥ 90%
same,pest or weed control at 1 µg/mL,[2],≥ 90%
same,pest or weed control at 4 µg/mL,[2],≥ 90%
same,pest or weed control at 40 µg/mL,[2],≥ 90%
same,pest or weed control at 0.5 µg/mL,[1]; [13],≥ 90%
same,pest or weed control at 1 µg/mL,[1]; [14],≥ 90%
same,pest or weed control at 10 µg/mL,[1]; [4],100%
same,pest or weed control at 0.5 µg/mL,[1]; [9],100%
same,pest or weed control at 1 µg/mL,[1]; [10],100%
N#CCN(C(=O)c1ccc(C(F)(F)F)cc1)c1cccc(C(=O)Nc2c(Br)cc(C(F)(C(F)(F)F)C(F)(F)F)cc2Br)c1F [Compound 2.43],pest or weed control at 0.05 µg/mL,[3],≥ 90%
same,pest or weed control at 0.1 µg/mL,[3],≥ 90%
same,pest or weed control at 0.5 µg/mL,[3],≥ 90%
same,pest or weed control at 1 µg/mL,[2],≥ 90%
same,pest or weed control at 4 µg/mL,[2],≥ 90%
same,pest or weed control at 40 µg/mL,[2],≥ 90%
same,pest or weed control at 0.5 µg/mL,[1]; [13],≥ 90%
same,pest or weed control at 1 µg/mL,[1]; [14],≥ 90%
same,pest or weed control at 10 µg/mL,[1]; [4],100%
same,pest or weed control at 0.5 µg/mL,[1]; [9],100%
same,pest or weed control at 1 µg/mL,[1]; [10],100%
